Assay results from ChEMBL document CHEMBL1201862, “PubChem BioAssay data set” (2004).
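Interpolation was linear, between the two tested concentrations surrounding the appropriate level; five concentrations were tested over 48 hours in 96-well plates. The concentration for 50% growth inhibition is given as GI50.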 The source made the active and inactive calls. Rule as the data show it: active = GI50 up to about 1.1 µM and inactive = higher.

What was measured:
Assay in all cases: growth of human tumour cells (NCI), 48 h
SN12C = tested on: SN12C
NCI-H23 = tested on: NCI-H23
NCI-H460 = tested on: NCI-H460
LOX IMVI = tested on: LOX IMVI
HCC 2998 = tested on: HCC 2998
OVCAR-8 = tested on: OVCAR-8
A549 = tested on: A549
SW-620 = tested on: SW-620
COLO 205 = tested on: COLO 205
EKVX = tested on: EKVX
ACHN = tested on: ACHN
MDA-MB-435 = tested on: MDA-MB-435
SK-MEL-28 = tested on: SK-MEL-28
NCI-H226 = tested on: NCI-H226
NCI-H522 = tested on: NCI-H522
HCT-15 = tested on: HCT-15
KM12 = tested on: KM12
Malme-3M = tested on: Malme-3M
HCT-116 = tested on: HCT-116
HOP-92 = tested on: HOP-92

**Q.** Which GI50 (SN12C) does the source give for `N#C[BH2-][n+]1ccc(C(=O)NNCc2cccc(C(F)(F)F)c2)cc1` here?
**A.** 28.8 µM (inactive)

**Q.** And the GI50 (NCI-H23)?
**A.** 12.2 µM (inactive)

**Q.** And the GI50 (NCI-H460)?
**A.** 20 µM (inactive)

**Q.** What about the GI50 (LOX IMVI) of the same compound?
**A.** 4.26 µM (inactive)

**Q.** And the GI50 (HCC 2998)?
**A.** 7.11 µM (inactive)

**Q.** And the GI50 (OVCAR-8)?
**A.** 3.98 µM (inactive)

**Q.** What about the GI50 (A549) of the same compound?
**A.** 13.5 µM (inactive)

**Q.** And the GI50 (SW-620)?
**A.** 25.5 µM (inactive)

**Q.** And the GI50 (COLO 205)?
**A.** 14.1 µM (inactive)

**Q.** What about the GI50 (EKVX) of the same compound?
**A.** 27.3 µM (inactive)

**Q.** What about the GI50 (ACHN) of the same compound?
**A.** 33.7 µM (inactive)

**Q.** And the GI50 (MDA-MB-435)?
**A.** 17.7 µM (inactive)

**Q.** And the GI50 (SK-MEL-28)?
**A.** 5.5 µM (inactive)

**Q.** What about the GI50 (NCI-H226) of the same compound?
**A.** 3.27 µM (inactive)

**Q.** What about the GI50 (NCI-H522) of the same compound?
**A.** 16.3 µM (inactive)

**Q.** And the GI50 (HCT-15)?
**A.** 21.3 µM

**Q.** What about the GI50 (KM12) of the same compound?
**A.** 4.76 µM (inactive)

**Q.** What about the GI50 (Malme-3M) of the same compound?
**A.** 3.54 µM (inactive)

**Q.** What about the GI50 (HCT-116) of the same compound?
**A.** 15.2 µM (inactive)

**Q.** And the GI50 (HOP-92)?
**A.** 14.9 µM (inactive)

**Q.** Which GI50 (SN12C) does the source give for `CCOC(=O)c1sc2ncnc(N)c2c1C` here?
**A.** 21.4 µM (inactive)

**Q.** What about the GI50 (NCI-H23) of the same compound?
**A.** 70.3 µM (inactive)

**Q.** And the GI50 (NCI-H460)?
**A.** > 100 µM (inactive)

**Q.** What about the GI50 (LOX IMVI) of the same compound?
**A.** 43.8 µM (inactive)

**Q.** And the GI50 (HCC 2998)?
**A.** 40.1 µM (inactive)

**Q.** And the GI50 (OVCAR-8)?
**A.** 35 µM (inactive)

**Q.** What about the GI50 (A549) of the same compound?
**A.** > 100 µM (inactive)

**Q.** And the GI50 (SW-620)?
**A.** > 100 µM (inactive)

**Q.** And the GI50 (COLO 205)?
**A.** 19.6 µM (inactive)

**Q.** And the GI50 (EKVX)?
**A.** 25.9 µM (inactive)

**Q.** What about the GI50 (ACHN) of the same compound?
**A.** 65.8 µM (inactive)

**Q.** And the GI50 (MDA-MB-435)?
**A.** 36 µM (inactive)

**Q.** And the GI50 (SK-MEL-28)?
**A.** 45.3 µM (inactive)

**Q.** What about the GI50 (NCI-H226) of the same compound?
**A.** 75.5 µM (inactive)

**Q.** And the GI50 (NCI-H522)?
**A.** 59.3 µM (inactive)

**Q.** What about the GI50 (HCT-15) of the same compound?
**A.** 73.6 µM

**Q.** What about the GI50 (KM12) of the same compound?
**A.** 47.1 µM (inactive)

**Q.** And the GI50 (Malme-3M)?
**A.** 82.8 µM (inactive)

**Q.** What about the GI50 (HCT-116) of the same compound?
**A.** 30.5 µM (inactive)

**Q.** And the GI50 (HOP-92)?
**A.** 8.99 µM (inactive)

**Q.** For `C=C1[C@H](OCC(C)C)[C@@H](OC(=O)C(C)CC)[C@@H](O)C(C)(C)/C=C/[C@H](C)C(=O)[C@@]2(O)C[C@H](C)[C@H](O)[C@@H]2[C@H]1OC(=O)C(C)CC` (stereo not given in full), which GI50 (SN12C) is on record?
**A.** 7.29 µM (inactive)

**Q.** And the GI50 (NCI-H23)?
**A.** 5.2 µM (inactive)

**Q.** And the GI50 (NCI-H460)?
**A.** 0.463 µM (active)

**Q.** What about the GI50 (LOX IMVI) of the same compound?
**A.** 4.2 µM (inactive)

**Q.** And the GI50 (HCC 2998)?
**A.** 2.84 µM (inactive)

**Q.** And the GI50 (OVCAR-8)?
**A.** 9.98 µM (inactive)

**Q.** What about the GI50 (A549) of the same compound?
**A.** 1.38 µM (inactive)

**Q.** And the GI50 (SW-620)?
**A.** 5.24 µM (inactive)

**Q.** And the GI50 (COLO 205)?
**A.** 0.904 µM (active)

**Q.** What about the GI50 (EKVX) of the same compound?
**A.** 8.83 µM (inactive)

**Q.** What about the GI50 (ACHN) of the same compound?
**A.** 3.02 µM (inactive)

**Q.** What about the GI50 (MDA-MB-435) of the same compound?
**A.** 1.7 µM (inactive)

**Q.** What about the GI50 (SK-MEL-28) of the same compound?
**A.** 10.2 µM (inactive)

**Q.** What about the GI50 (NCI-H226) of the same compound?
**A.** 5.73 µM (inactive)

**Q.** What about the GI50 (NCI-H522) of the same compound?
**A.** 8.63 µM (inactive)

**Q.** And the GI50 (HCT-15)?
**A.** 7.82 µM

**Q.** And the GI50 (KM12)?
**A.** 5.41 µM (inactive)

**Q.** And the GI50 (Malme-3M)?
**A.** 6.62 µM (inactive)

**Q.** What about the GI50 (HCT-116) of the same compound?
**A.** 4.88 µM (inactive)

**Q.** What about the GI50 (HOP-92) of the same compound?
**A.** 1.79 µM (inactive)
